The values below come from patent US10274488B2, “Glycan arrays on PTFE-like aluminum coated glass slides and related methods” (Academia Sinica, priority 2008, dated 2019).

SMILES strings stand for the structures.

What all share (type): biochemical, Clostridium thermocellum
Assay [1] relates to endoglucanase 44A. In words: Enzymatic hydrolysis on the PTFE-like ACG surface with endoglucanase 44A, MS-TOF assay. Particulars: substrate immobilized on the PTFE-like ACG surface. As for the experimental part: (§1) For each carbohydrate, a specific enzyme was added: (a) is the control run without enzymes, (b) is exoglucanase L3, and (c) is endoglucanase 44A. […]
(§2) For comparison and as illustrated according to implementations shown in FIG. 23, substrate 8, 9, and 10 were immobilized on the PTFE-like ACG surface and carried out the cellulase hydrolysis on the surface directly, after the same washing procedures, these slides were subjected to MS-TOF assay. […] The endoglucanase 44A can't accept compound 8 or 9 as a substrate. […] From the above results, the cellotetraose substrate 10 was the best carbohydrate to create array on the PTFE-like ACG surface for the experiments conducted. By using this array, the activity and specificity of unknown cellulase may be examined.
(§3) Cellulase was prepared (5 U/mL in 25 mM pH 5.05 NaOAc buffer solution). Substrate was also dissolved in NaOAc buffer solution (25 mM, pH 5.05) to give 0.5 mM substrate solution. Add 50 μL cellulase solution to 50 μL substrate solution onto the glass slide which was loaded in FAST® Frame multi-slide plate to have a 2.5 U/mL cellulase solution with 0.25 mM substrate. The well of the plate was sealed and the whole assembly was incubated in 37° C. for 18 hours. Put the slide in dry box to remove the water, and then use high vacuum to remove trace water. 100 uL water was used to rinse each well of the FAST® Frame multi-slide plate to solve and remove the salt of the buffer solution. Remove any residual water on the plate by high vacuum and then analyzed the slide by MALDI-TOF Ultra-Flex II.
(§4) The genomic DNA of Sulfolobus solfataricus (ATCC 35092) and Clostridium thermocellum (ATCC 27405) were obtained from the ATCC biological resource center. The Sso7d (NCBI accession number: AAK42090) gene fragment was amplified directly from the Sulfolobus solfataricus genome by polymerase chain reaction (PCR) with forward 5′ […] 3′ (SEQ ID NO: 1) and reverse 5′ […] 3′ (SEQ ID NO: 2) primers. […]

Assay [2] deals with exoglucanase L3. In words: Enzymatic hydrolysis in solution with purified exoglucanase L3, MS-TOF assay. The following applies: reaction in solution. Here is the method:
(§5) To verify, the exoglucanases (L3) and endoglucanase (44A) were prepared according methods well known in the literature with minor modifications. First, enzymatic hydrolysis reactions were conducted in solution with the purified enzymes using substrates 8, 9 and 10. At the completion of the reaction, the solution mixtures were transferred to the PTFE-like ACG slide, and prepared by using the same washing procedures before being subjected to MS-TOF assay.
as §1
(§6) Cellulase was prepared (5 U/mL in 25 mM pH 5.05 NaOAc buffer solution). Substrate was also dissolved in NaOAc buffer solution (25 mM, pH 5.05) to give 0.5 mM substrate solution. Add 100 uL cellulase solution to 100 uL substrate solution in eppendorf to have a 2.5 U/mL cellulase solution with 0.25 mM substrate. This solution was incubated in 37° C. for 18 hours. Add 100 μL incubated solution onto the slide loaded in FAST® Frame. Put the slide in dry box to remove the water, and then use high vacuum to remove trace water. 100 μL water was used to rinse each well of the FAST® Frame multi-slide plate to solve and remove the salt of the buffer solution. Remove any residual water on the plate by high vacuum and then analyzed the slide by MALDI-TOF Ultra-Flex II.
(§7) The genomic DNA of Sulfolobus solfataricus (ATCC 35092) and Clostridium thermocellum (ATCC 27405) were obtained from the ATCC biological resource center. The Sso7d (NCBI accession number: AAK42090) gene fragment was amplified directly from the Sulfolobus solfataricus genome by polymerase chain reaction (PCR) with forward 5′ […] 3′ (SEQ ID NO: 1) and reverse 5′ […] 3′ (SEQ ID NO: 2) primers. The PCR product encoding Sso7d was digested with NdeI and BamHI and subsequently cloned into expression vector pET-28a (Novagen) to generate pET-28-Sso7d. […]

Assay [3] concerns exoglucanase L3. In words: Enzymatic hydrolysis on the PTFE-like ACG surface with exoglucanase L3, MS-TOF assay. Particulars: substrate immobilized on the PTFE-like ACG surface, 24 hours of incubation. Here is the method: as §1, §2
as §3, with “The well of the plate was sealed and the whole assembly was incubated in 37° C. for 18 hours.” left out
as §4

Assay [4] has as its system endoglucanase 44A. In words: Enzymatic hydrolysis in solution with purified endoglucanase 44A, MS-TOF assay. The following applies: reaction in solution. As for the experimental part:
as §5, §1, §6, §7

Take `O=C(NCCCCCO[C@@H]1O[C@H](CO)[C@@H](O[C@@H]2O[C@H](CO)[C@@H](O[C@@H]3O[C@H](CO)[C@@H](O[C@@H]4O[C@H](CO)[C@@H](O)[C@H](O)[C@H]4O)[C@H](O)[C@H]3O)[C@H](O)[C@H]2O)[C@H](O)[C@H]1O)OCCCC(F)(F)C(F)(F)C(F)(F)C(F)(F)C(F)(F)C(F)(F)C(F)(F)C(F)(F)C(F)(F)F` [Compound 10, [(4,4,5,5,6,6,7,7,8,8,9,9,10,10,11,11,12,12,12-nonadecafluorododecoxycarbonyl-amino)pentyl] ß-D-glucopyranosyl-(1→4)-ß-D-glucopyranosyl-(1→4)- -ß-D-glucopyranosyl-(1→4)-13-D-glucopyranoside]: the “Cleavage of the substrate by endoglucanase 44A (in words)” value was “cleaved cellotetraose quickly” in the assay on endoglucanase 44A [1] and “cleaves the trisaccharide or tetrasaccharide unit” in the assay on endoglucanase 44A [4]. For the same molecule, the “Cleavage of the substrate by exoglucanase L3 (in words)” value is recorded as “quickly” in the assay on exoglucanase L3 [2] and “cleaved the cellobiose quickly” in the assay with exoglucanase L3 [3].
